The values below come from patent US20250325553A1, “METHODS OF TREATING CANCER” (FOGHORN THERAPEUTICS INC., priority 2022, published 2025).

Where two headings read alike, the source gives them in different places.

Data set [1] relates to subjects with metastatic uveal melanoma. The data set can be described thus: Phase 1 dose escalation clinical trial, dose limiting toxicity. It is filed as in vivo. To be noted: one subject treated at the 7.5 mg dose; improved with a dose hold. As for the experimental part: (§1) A Phase 1 dose escalation clinical trial of Compound A is conducted. The trial is primarily intended to determine the maximum tolerated dose (MTD) and/or recommended phase 2 dose of the compound when administered orally to subjects with metastatic uveal melanoma.
(§2) In this ongoing study, Compound A has been administered at dose levels of 2.5 mg once a day (QD), 5 mg QD, 7.5 mg QD, and 10 mg QD to 17 subjects with metastatic uveal melanoma.

The nature of data set [2]: Population PK model of orally administered Compound A patient data. It is filed as in vivo, human. As for the experimental part:
A population PK model based on orally administered Compound A dosing data in a total of 10 patients with metastatic uveal melanoma (UM) and advanced hematologic malignancies (e.g., acute myeloid leukemia (AML)) was performed.
Nonlinear mixed-effects models were fitted to concentration vs. time data of FHD-286. Various compartmental models with linear elimination (1-, 2- and 3-compartment), absorption models, structures of omega on clearances, volumes and absorption parameters (diagonal and block) were developed to assess the PK of Compound A.
Overall, a two-compartment model with linear elimination, a zero-order oral absorption, and a lag time of absorption adequately characterized the concentration-time profiles of Compound A.
Exploratory analysis of covariate effects was performed with appropriate plots presenting relationships between the ETAs (e.g., values reflecting the difference between and individual's parameter value and that of the population) of PK parameters to identify any remaining covariate trends. […] Therefore a “Multiple Dose Effect” on CL was included in the model to account for this change over time.
No other covariates were included as part of the model.

A short description of data set [3]: Phase 1 dose escalation clinical trial, preliminary pharmacokinetics. It is filed as in vivo. To be noted: preliminary PK analysis. As for the experimental part: as §1, §2
The subject of data set [4] is metastatic uveal melanoma. The data set is described as follows: Phase 1 dose escalation clinical trial, tumor response. The conditions noted are these: 2.5-10 mg QD oral, 17 subjects with metastatic uveal melanoma. It is filed as in vivo, human. As for the experimental part:
as §1, §2

As for `COC[C@H](NC(=O)c1ccn(S(C)(=O)=O)c1)C(=O)Nc1nc(-c2cccc(N3C[C@@H](C)O[C@@H](C)C3)n2)cs1` [Compound A, N-(1-((4-(6-(2,6-dimethylmorpholino)pyridin-2-yl)thiazol-2-yl)amino)-3-methoxy-1-oxopropan-2-yl)-1-(methylsulfonyl)-1H-pyrrole-3-carboxamide], the dose limiting toxicity entry in data set [1] is “Grade 3 keratitis”. In addition, in data set [2] (after multiple doses), the “clearance (CL) over time” value is on record as “reduction in clearance”. In addition, the “Vc, Estimate” value in data set [2] (final PK model parameter) is reported as 54.6 L. The “Tlag, Estimate” value in data set [2] (final PK model parameter, lag time of absorption) is given as 0.452 h. The “Dur, Estimate” value in data set [2] (final PK model parameter, zero-order oral absorption, two-compartment model, 10 patients (UM, AML)) was 1.77 h. Besides, the clearance was 67.8 mL/min in data set [2] (human, in vivo, oral, final PK model parameter, linear elimination, read-out: CL, Estimate (converted)) and 510 mL/min in data set [2] (human, in vivo, oral, final PK model parameter, read-out: CLp, Estimate (converted)). Besides, the Vd in data set [2] (human, in vivo, oral, final PK model parameter, read-out: Vd, Estimate) was 165 L. In addition, in data set [3] (oral 2.5, 5, 7.5, 10 mg QD, subjects with metastatic uveal melanoma), the half-life entry is given as “long half-life”. Also, in data set [3] (oral 2.5-10 mg QD dose levels), the “plasma concentrations of the compound” value was “increase with increasing dose”. The tumor response entry in data set [4] was “Stable disease and reductions in tumor burden”.
